From patent US11590117B2, “Treatment of a hematologic malignancy with 2-(4-chlorophenyl)-n-((2-(2,6-dioxopiperidin-3-yl)-1-oxoisoindolin-5-yl)methyl)-2,2-difluoroacetamide” (priority 2016, dated 2023) come the findings set out here.

The subject of test [1] is BFU-E (erythroid progenitors). Description: cells. The settings on record: for IC50: Homo sapiens. It is filed as cell-based, human. The procedure:
Experimental design: human bone marrow (BM) CD34+ cells were used to evaluate the potential for BM toxicity induced by Compound 1. In order to test the effects of Compound 1 on the functionality of hematopoietic progenitors, colony forming assays were done by seeding BM CD34+ cells on MethoCult medium. Cells were seeded directly in MethoCult with Compound 1 or cultured in liquid medium with Compound 1 for 2, 4, or 8 hours and then seeded in compound-free MethoCult to evaluate the effect of different exposure times. Early apoptosis induced by Compound 1 on HSC was analyzed by flow cytometry.
Results. Colony forming units (CFU) of common granulocyte/erythrocyte/monocyte/megakaryocyte (CFU-GEMM), CFU of granulocyte/monocyte (CFU-GM), burst forming unit of erythrocytes (BFU-E), and CFU of erythrocytes (CFU-E) in cultures exposed to Compound 1 or DMSO were scored on STEMvision.
Bone marrow CD34+ cells from normal donors were incubated with Compound 1 in MethoCult medium. Colony numbers for CFU-GM and BFU-E progenitors were counted using STEMVision automatic colony counting instrument and software and normalized to the colony number of the DMSO control. Results plotted as percentage of DMSO control vs concentration of Compound 1 were used to determine IC50 values. Data are shown as mean standard error of the mean of n=3 technical replicates. Donors were HD10, HD14, HD18, and HD19.
FIGS. 33A and 33B provide, colony numbers after preincubation of bone marrow CD34+ cells with Compound 1 for 4 or 8 hours, respectively, in Iscove's medium, followed by incubation in MethoCult medium without Compound 1 for 14 days. FIG. 33C provides colony numbers after incubation of bone marrow CD34+ cells in MethoCult medium in continuous presence of Compound 1 for 14 days.

Test [2] concerns HR-MDS, sAML and normal bone marrow progenitors. Description: SL/M2 stromal co-culture colony replating assay (cell self-renewal assay). In kind it is cell-based, human. The settings on record: 1 nM and 10 nM; sAML and HR-MDS progenitors more than normal bone marrow progenitors. The protocol: Compound 1 at the indicated concentrations was added at the initiation of co-culture, with DMSO as a vehicle control. Colonies were scored to determine the effect of Compound 1 on cell survival (FIG. 36A) and self-renewal (FIG. 36B). ***, p<0.001, AML vs normal bone marrow controls treated with 1 nM of compound 1 (one-way ANOVA). **, p=0.01, AML vs normal bone marrow controls treated with 10 nM of Compound 1 (one-way ANOVA). Error bars represent mean values SD.
Methods. Mouse stromal cells SL/M2 stably expressing human interleukin-3 (IL-3), granulocyte colony stimulating factor (G-CSF) and stem cell factor (SCF) were cultured to confluency, followed by gamma-irradiation. Human CD34+ bone marrow cells isolated from 3 high-risk MDS patients (HR-MDS), 3 secondary AML patients arising from MDS (sAML) and 5 age-matched healthy donors were then cultured with inactivated SL/M2 cells for a week. Next, human progenitor cells were quantified by FACS and cells were plated in methylcellulose for colony forming assay (cell survival assay). After two weeks, 20-25 colonies were picked from each condition, resuspended and replated in fresh methylcellulose for 2nd round of colony forming assay (cell self-renewal assay).

Read-outs that look alike come from different tables or passages of the source.

On to `O=C1CCC(N2Cc3cc(CNC(=O)C(F)(F)c4ccc(Cl)cc4)ccc3C2=O)C(=O)N1` (stereo not shown) [Compound 1, 2-(4-chlorophenyl)-N-((2-(2,6-dioxopiperidin-3-yl)-1-oxoisoindolin-5-yl)methyl)-2,2-difluoroacetamide], for which, in test [1] (8 hours exposure, Compound 1 ≥111 nM, donors HD46, HD47, HD48, HD50), the “reduction in number of BFU-E colonies” value is listed as “more than 50%”. The concentration for half-maximal inhibition (IC50) in test [1] (8 hours exposure, donors HD46, HD47, HD48, HD50, read-out: individual IC50 values, BFU-E colonies) was 30 to 150 nM; in test [1] (CD34+ cells from four healthy donors, Compound 1 in MethoCult, read-out: IC50, inhibition of erythroid progenitors (BFU-E)), 32 to 131 nM. In addition, the “colony replating (self-renewal)” value in test [2] is on record as “significantly reduced the self-renewal”.
